Reference: patent US20220365087A1, “METHOD FOR ACQUIRING DATA FOR DISTINGUISHING PRESENCE OF CANCER CELLS AND/OR DISTINGUISHING ANTICANCER DRUG RESISTANCE, METHOD FOR ACQUIRING PREDICTION DATA, USE OF DISTINCTION MARKER IN SAME, AND DISTINGUISHING KIT” (KEIO UNIVERSITY, priority 2019, published 2022)

Assays:
[1] = system: plasmid (pcDNA3.1 empty vector) double strand DNA; assay: Gel shift assay of DNA supercoiling disturbance by cisplatin; type: biochemical; conditions: 37° C. for 60 minutes; for effect on disturbance of double strand DNA supercoiling by cisplatin (CDDP): preincubation of plasmid with Na2Sn, then 60 μM CDDP
Description: To quantify the degree of DNA intercalation by cisplatin (CDDP) that disturbs DNA supercoiling, 1 μg of plasmid (pcDNA3.1 empty vector, #V79020, Invitrogen) was mixed with a predetermined concentration of Na2Sn (n=an integer of 1 to 4), and preincubated in 10 mM phosphate-buffered saline (PBS, pH6.0) at room temperature for 5 minutes. Then, a CDDP solution was added to the solution to obtain a final concentration of 60 μM. Thereafter, the mixed solution was incubated at 37° C. for 60 minutes. After the incubation, the reaction products in the mixed solution were separated by electrophoresis using 1% agarose gel for determination of the DNA secondary structure.
It was previously shown that cisplatin can disturb DNA supercoiling by being intercalated between bases of double-stranded DNA structures and causing structural changes (Non-patent Document 4). In this study, the present inventors determined in vitro that cisplatin induced change in the bulk molecular volume of supercoiling DNA, and the bulk molecular volume was recovered by addition of polysulfide (FIG. 3).
This can be inferred because of the enhanced reducing power of the polysulfide with the increase in the number of sulfur atoms.

[2] = system: ovarian serous carcinoma (SC); assay: Effectiveness of the anticancer drug in ovarian serous carcinoma; type: in vivo
[3] = system: ovarian clear cell carcinoma (CCC); assay: Effectiveness of the anticancer drug in ovarian clear cell carcinoma; type: in vivo

## [Na+].[Na+].[S-]SS[S-] [Na2S4]
[1]
  effect on disturbance of double strand DNA supercoiling by cisplatin (CDDP): attenuated

## [Na+].[Na+].[S-]S[S-] [Na2S3]
[1]
  effect on disturbance of double strand DNA supercoiling by cisplatin (CDDP): attenuated

## N.N.[Cl][Pt][Cl] [cisplatin]
[2]
  effectiveness as an anticancer drug: more effective
[1]; CDDP final concentration 60 μM, 1 μg plasmid, 1% agarose gel
  change in the bulk molecular volume of supercoiling double strand DNA: increased the bulk molecular volume of double strand DNA
[3]
  effectiveness as an anticancer drug: less effective

## [Na+].[Na+].[S-2] [Na2S]
[1]
  effect on disturbance of double strand DNA supercoiling by cisplatin (CDDP): attenuated

## [Na+].[Na+].[S-][S-] [Na2S2]
[1]
  effect on disturbance of double strand DNA supercoiling by cisplatin (CDDP): attenuated
